This assay concerns HCV. Description: Cell-based HCV infection NS3 protease FRET assay in DMSO-Huh7 cells. Note: test concentration or dose not given here. On the set-up: species or system hepatitis C virus (HCV).
Where [1] appears, read: DMSO-Huh7 cells infected with HCV at 0.05 ffu/cell, HCV NS3 protein levels by FRET, day 6 p.i.

These results are taken from patent US20110195929A1, “COMPOUNDS FOR THE TREATMENT OF FLAVIVIRAL INFECTIONS” (SUMMIT CORPORATION PLC, priority 2008, published 2011).

Where two headings read alike, the source gives them in different places.

`CCCCN1C[C@H](O)[C@H](O)[C@H]1CNC(=O)CCC` [Compound 689, N-(((2R,3R,4S)-1-butyl-3,4-dihydroxypyrrolidin-2-yl)methyl)butyramide]: the Ave % inhibition entry under setting [1] is on record as “+ (+: ≦19%)”.

Consider “(3R,5S)-5-(acetamidomethyl)-1-nonylpyrrolidin-3-yl acetate [Compound 547]”, for which, under setting [1], the Ave % inhibition entry is on record as “++++ (++++: 60-79%)”.

Regarding `NC[C@H]1[C@@H](O)[C@@H](O)CN1Cc1ccc(-c2ccccc2)cc1` [Compound 686, (2S,3R,4S)-2-(aminomethyl)-1-(biphenyl-4-ylmethyl)pyrrolidine-3,4-diol], under setting [1], the Ave % inhibition entry is given as “+++ (+++: 40-59%)”.

With `CCN1C[C@H](O)[C@@H](O)[C@H](O)[C@H]1CO` [Compound 756, (2R,3R,4R,5S)-1-ethyl-2-(hydroxymethyl)piperidine-3,4,5-triol], the Ave % inhibition result was “+ (+: ≦19%)”.

On to `CCCCCCCCCN1C[C@H](O)C(NC(C)=O)[C@@H](O)C1` [Compound 777, N-((3S,5S)-3,5-dihydroxy-1-nonylpiperidin-4-yl)acetamide], for which the Ave % inhibition entry under setting [1] is recorded as “+++ (+++: 40-59%)”.

For the molecule `OCCN1C[C@@H](O)[C@@H](O)[C@H]1[C@H](O)CO` [Compound 145, (2R,3S,4R)-2-((S)-1,2-dihydroxyethyl)-1-(2-hydroxyethyl)pyrrolidine-3,4-diol], under setting [1], the Ave % inhibition entry is “+++ (+++: 40-59%)”.

For `CC1(C)O[C@H]2[C@H](CN(Cc3ccccc3)[C@H]2CNC(=O)c2ccc(-c3ccccc3)cc2)O1` [Compound 652, N-(((3aR,4S,6aS)-5-benzyl-2,2-dimethyltetrahydro-3aH-[1,3]dioxolo[4,5-c]pyrrol-4-yl)methyl)biphenyl-4-carboxamide], under setting [1], the Ave % inhibition result is reported as “+++++ (+++++: ≧80%)”.

For the molecule `CN(C)CCN1C[C@@H]2OC(C)(C)O[C@@H]2[C@@H]1CNC(=O)C(F)(F)F` [Compound 678, N-(((3aR,4S,6aS)-5-(2-(dimethylamino)ethyl)-2,2-dimethyltetrahydro-3aH-[1,3]dioxolo[4,5-c]pyrrol-4-yl)methyl)-2,2,2-trifluoroacetamide], the Ave % inhibition entry under setting [1] is recorded as “++ (++: 20-39%)”.

Regarding `CC1(C)O[C@H]([C@H]2[C@@H](O)[C@H](O)CN2Cc2ccccc2)[C@@H](CNCc2ccccc2)O1` [Compound 704, (2R,3R,4R)-1-benzyl-2-((4R,5R)-5-((benzylamino)methyl)-2,2-dimethyl-1,3-dioxolan-4-yl)pyrrolidine-3,4-diol], the Ave % inhibition result under setting [1] is on record as “++++ (++++: 60-79%)”.

Take `[N-]=[N+]=N[C@@H]1CN[C@@H](CO)C1` [Compound 767, ((2R,4S)-4-azidopyrrolidin-2-yl)methanol]: the Ave % inhibition entry under setting [1] is “++++ (++++: 60-79%)”.

For `O[C@H]([C@H]1[C@@H](O)[C@H](O)CN1Cc1ccccc1)[C@H](O)CNCc1ccccc1` [Compound 698, (2S,3R,4R)-1-benzyl-2-((1R,2R)-3-(benzylamino)-1,2-dihydroxypropyl)pyrrolidine-3,4-diol], the Ave % inhibition result under setting [1] is recorded as “++ (++: 20-39%)”.

For the molecule `O=C(O)[C@@]1(O)CNC[C@@H](O)[C@H]1O` [Compound 87, (3R,4R,5R)-3,4,5-trihydroxypiperidine-3-carboxylic acid], the Ave % inhibition result under setting [1] is recorded as “+++ (+++: 40-59%)”.

In the case of `COCCOCCN1C[C@H](O)[C@H](O)[C@@H]1CNC(=O)c1ccc(-c2ccccc2)cc1` [Compound 688, N-(((2S,3R,4S)-3,4-dihydroxy-1-(2-(2-methoxyethoxy)ethyl)pyrrolidin-2-yl)methyl)biphenyl-4-carboxamide], the Ave % inhibition entry under setting [1] is on record as “+++ (+++: 40-59%)”.

In the case of `C[C@H]1N[C@@H](CO)[C@H](O)[C@H]1O` [Compound 119, (2S,3S,4S,5R)-2-(hydroxymethyl)-5-methylpyrrolidine-3,4-diol], the Ave % inhibition entry under setting [1] is on record as “++ (++: 20-39%)”.

Take `OC1CN(Cc2ccc(-c3ccccc3)cc2)C1` [Compound 748, 1-(biphenyl-4-ylmethyl)azetidin-3-ol]: the Ave % inhibition entry under setting [1] is “++++ (++++: 60-79%)”.

Consider `CC1(C)O[C@H]2[C@H](CN(CCN3CCCCC3)[C@H]2CNC(=O)C(F)(F)F)O1` [Compound 677, N-(((3aR,4S,6aS)-2,2-dimethyl-5-(2-(piperidin-1-yl)ethyl)tetrahydro-3aH-[1,3]dioxolo[4,5-c]pyrrol-4-yl)methyl)-2,2,2-trifluoroacetamide], for which the Ave % inhibition result under setting [1] is reported as “++ (++: 20-39%)”.

As to `OC[C@@H](O)[C@H](O)[C@H]1[C@@H](O)[C@H](O)CN1Cc1ccccc1` [Compound 703, (1R,2R)-1-((2R,3R,4R)-1-benzyl-3,4-dihydroxypyrrolidin-2-yl)propane-1,2,3-triol], the Ave % inhibition result under setting [1] is given as “++ (++: 20-39%)”.

As for `CC(=O)NC[C@@H]1[C@@H](O)[C@@H](O)CN1CCCCCCCCCO` [Compound 511, N-(((2R,3R,4S)-3,4-dihydroxy-1-(9-hydroxynonyl)pyrrolidin-2-yl)methyl)acetamide], under setting [1], the Ave % inhibition result was “++ (++: 20-39%)”.

Consider `O[C@H]1[C@H](O)[C@H](O)CN(Cc2ccc(-c3ccccc3)cc2)C[C@H]1O` [Compound 762, (3R,4R,5R,6R)-1-(biphenyl-4-ylmethyl)azepane-3,4,5,6-tetraol], for which the Ave % inhibition result under setting [1] is reported as “+++ (+++: 40-59%)”.

Turning to `OC[C@@H]1[C@@H](O)[C@H](O)[C@@H](CO)N1Cc1ccc(-c2ccccc2)cc1` [Compound 559, (2R,3R,4R,5R)-1-(biphenyl-4-ylmethyl)-2,5-bis(hydroxymethyl)pyrrolidine-3,4-diol], the Ave % inhibition result under setting [1] is listed as “++++ (++++: 60-79%)”.

Regarding `CC(=O)N[C@@H]1CNC[C@@H](O)[C@H]1O` [Compound 563, N-((3R,4S,5R)-4,5-dihydroxypiperidin-3-yl)acetamide], under setting [1], the Ave % inhibition result was “++++ (++++: 60-79%)”.

On to `CCCCCCCCCN1C[C@H](O)[C@H](O)[C@@H]1[C@@H](O)[C@H](O)CO` [Compound 404, (1R,2R)-1-((2R,3R,4S)-3,4-dihydroxy-1-nonylpyrrolidin-2-yl)propane-1,2,3-triol], for which, under setting [1], the Ave % inhibition result is given as “+++ (+++: 40-59%)”.

As to `[O-][N@@+]12C[C@H](O)[C@H](O)[C@@H]1[C@@H](O)[C@H](O)[C@@H]2CO` [Compound 81, (1R,2R,3S,4R,6S,7R,7aR)-1,2,6,7-tetrahydroxy-3-(hydroxymethyl)octahydropyrrolizine 4-oxide], the Ave % inhibition result is recorded as “++ (++: 20-39%)”.

In the case of `CC1(C)O[C@H]2[C@H](CN(Cc3ccccc3)[C@@H]2CN)O1` [Compound 483, ((3aR,4R,6aS)-5-benzyl-2,2-dimethyltetrahydro-3aH-[1,3]dioxolo[4,5-c]pyrrol-4-yl)methanamine], the Ave % inhibition result under setting [1] is reported as “++ (++: 20-39%)”.

For the molecule `OC[C@@H](O)[C@@H]1[C@H](O)[C@H](O)CN1Cc1ccccc1` [Compound 799, (2R,3S,4R)-1-benzyl-2-((S)-1,2-dihydroxyethyl)pyrrolidine-3,4-diol], under setting [1], the Ave % inhibition result is “+ (+: ≦19%)”.

Take `O[C@@H]1[C@H]([C@@H](O)CNCc2ccccc2)N(Cc2ccccc2)C[C@@H]1O` [Compound 700, (2S,3R,4S)-1-benzyl-2-((S)-2-(benzylamino)-1-hydroxyethyl)pyrrolidine-3,4-diol]: under setting [1], the Ave % inhibition entry is “++ (++: 20-39%)”.

As to `CCCCCCCCCN1C[C@H](O)[C@H](O)[C@@H]1CNC(C)=O` [Compound 587, N-(((2S,3R,4S)-3,4-dihydroxy-1-nonylpyrrolidin-2-yl)methyl)acetamide], the Ave % inhibition result under setting [1] is listed as “+++ (+++: 40-59%)”.
